In publication PMC10740580, “Benzothiazole-Phthalimide Hybrids as Anti-Breast Cancer and Antimicrobial Agents” (Antibiotics, 2023):
In brackets after ≈: the same amount, converted by molar mass.

Key:
MDA-MB-231 cells = experiment: MTT cell viability assay, MDA-MB-231; format: cell-based, human; conditions: mean ± SD; for IC50: Homo sapiens, MDA-MB-231, 72 h exposure
Description: (§1) The anticancer activity of the studied compounds (3a–h) was explored with regards to two human breast cancer cell lines, namely the estrogen receptor positive (ER+) MCF-7 cells and the triple negative MDA-MB-231 cells (ER-, PR-, and HER-2/Neu-). Cells were continuously exposed to the test substances for 72 h, after which their viability was assessed by means of the MTT assay. Table 2 lists the determined IC50 values for the investigated substances and the reference drug, thalidomide. […] Additionally, the same test for all the compounds has been performed on nonmalignant breast epithelial cells (MCF-10A) to ascertain their potential cytotoxicity.
(§2) The four cell lines used in this work (MCF-7, MDA-MB-231, MCF-10A, and 3T3-L1) were obtained from the American Type Culture Collection (ATCC, Manassas, VA, USA). All cell lines were maintained at 37 °C in a humidified atmosphere of 95% air and 5% CO2 and periodically screened for contamination. MCF-7, human breast cancer cells estrogen receptor (ER)-positive, and human breast cancer triple negative MDA-MB231 were grown in DMEM-F12 medium containing 2 mmol/L L-glutamine, 1 mg/mL penicillin–streptomycin, and 5% newborn calf serum (NCS) or 5% fetal bovine serum (FBS), respectively. MCF-10A human mammary epithelial cells were cultured in DMEM/F12 medium, supplemented with 5% horse serum (HS) (Eurobio, Les Ullis, Cedex, France), 100 U/mL penicillin/streptomycin, […], 20 ng/mL hEGF (human epidermal growth factor), […], and […] (Sigma-Aldrich, Milano, Italy). BALB/3T3 murine fibroblast cells were cultured in DMEM high glucose supplemented with 10% bovine calf serum (BCS), 1% L-glutamine, and 100 U/mL penicillin/streptomycin.
(§3) Cell viability was evaluated by means of the 3-(4,5-dimethylthiazol-2-y1)-2,5-diphenyltetra zolium bromide (MTT, Sigma-Aldrich, Milan, Italy) assay. On 48-well plates, cells were seeded, and they were cultured in complete medium. Before being treated, cells were starved in serum-free medium for 24 h to allow cell cycle synchronization. Subsequently, cells were exposed to increasing doses of each compound for 72 h in phenol-red-free media supplemented with 1% serum before fresh MTT was added to each well (final concentration: 0.5 mg/mL). Cells were lysed with DMSO after 2 h of incubation at 37 °C, and optical density at 570 nm was then determined with a microplate reader. Using GraphPad Prism 9 software (GraphPad Inc., San Diego, CA, USA), the mean absorbance for each sample was expressed as a percentage over the control and plotted vs. drug concentrations to establish the IC50 values. The given standard deviations (SDs) are indicative of three separate tests carried out in triplicate.

MCF-7 cells = experiment: MTT cell viability assay, MCF-7; format: cell-based, human; conditions: mean ± SD; for IC50: Homo sapiens, MCF7, 72 h exposure
Description: as §1, §2, §3

[1] = system: Staphylococcus aureus 25923; experiment: Broth microdilution, S. aureus ATCC 25923; format: cell-based; conditions: 37 °C; for MIC: Staphylococcus aureus, 25923, 24 h
Description: (§4) Compounds 3a–h were examined in accordance with the Clinical Laboratory Standards Institute (CLSI) recommendations, by means of the broth microdilution method, against gram-positive bacteria (Staphylococcus aureus 25923, Staphylococcus aureus 29213, Staphylococcus aureus 43300, Enterococcus faecalis 29212) and gram-negative bacteria (Escherichia coli 25922, Klebsiella pneumoniae 13883, Pseudomonas aeruginosa 27853) belonging to the ATCC collection, using levofloxacin as a reference drug. Table 3 lists the results, expressed as MIC (µg/mL). […] The lack of activity observed for compound 3d could be conceivably due to its poor solubility in the culture medium containing the inoculum.
(§5) Following the recommendations of the CLSI (Clinical and Laboratory Standards Institute, 2012), the broth microdilution method was used to determine the in vitro minimum inhibitory concentrations (MICs, µg/mL).. The concentration of the investigated compounds was set to its highest value to create stock solutions. Then, the stock solutions were diluted 1:10 with Cation-Adjusted Mueller Hinton Broth (Oxoid, Milan, Italy). After that, a series of concentrations from 512 µg/mL to […] were obtained in the wells by performing two-fold serial dilutions in the appropriate test medium. The diluent used to create the stock solution was 100% DMSO. We used the following bacterial strains from the ATCC collection that were available as freeze-dried discs: gram-positive strains such as S. aureus ATCC 25923, 29213, and 43300, and E. faecalis ATCC 29212, and gram-negative ones such as E. coli ATCC 25922, K. pneuomoniae ATCC 13883, and P. aeruginosa ATCC 27853. To preserve the purity of cultures and to allow their reproducibility, cryovials of all microbial strains were set up in the medium and stored at −80 °C. Mueller Hinton Broth (MHB) was used to prepare pre-cultures of each bacterial strain, which were then incubated for 3–5 h at 37 °C. In accordance with CLSI procedure M7-A9, the turbidity of the bacterial cell suspension was calibrated to 0.5 McFarland Standard using a spectrophotometric approach (OD625 nm 0.08–0.10). The standardized suspension was then further diluted (1:100) with MHB to reach 1–2 × 10^6 CFU/mL. A 200 µL aliquot of the final inoculum was inserted into each well. As a control for growth, several wells containing only inoculated broth were prepared. The plates were incubated at 37 °C for 24 h, and the MIC values were calculated as the lowest concentration of compounds at which there was no optically detectable bacteria growth. Each experiment was carried out in duplicate and repeated twice to determine the MICs. Levofloxacin served as the study’s standard reference antibiotic. Additionally, the antibacterial activity of DMSO alone (used as a diluent for the investigated compounds) was examined; therefore, volumes of this solvent with a concentration of less than 5% were utilized throughout the experimentation.

[2] = system: Staphylococcus aureus 29213; experiment: Broth microdilution, S. aureus ATCC 29213; format: cell-based; conditions: 24 h, 37 °C
Description: as §4, §5

[3] = system: Staphylococcus aureus 43300; experiment: Broth microdilution, S. aureus ATCC 43300; format: cell-based; conditions: 24 h, 37 °C, methicillin-resistant
Description: as §4, §5

[4] = system: Enterococcus faecalis 29212; experiment: Broth microdilution, E. faecalis ATCC 29212; format: cell-based; conditions: 24 h, 37 °C, read-out: MIC E.f. 29212
Description: as §4, §5

[5] = system: Acinetobacter baumanii 19606; experiment: Broth microdilution, A. baumanii 19606; format: cell-based; conditions: Acinetobacter baumannii, 24 h, 37 °C, read-out: MIC A.b. 19606
Escherichia coli 25922 = experiment: Broth microdilution, E. coli ATCC 25922; format: cell-based; conditions: 24 h, 37 °C
Description: as §4, §5

[6] = system: Pseudomonas aeruginosa 27853; experiment: Broth microdilution, P. aeruginosa ATCC 27853; format: cell-based; conditions: 24 h, 37 °C
Description: as §4, §5

SMILES	IC50 (MDA-MB-231 cells) [µM]	IC50 (MCF-7 cells) [µM]	MIC [1] [µg/mL]	MIC [2] [µg/mL]	MIC [3] [µg/mL]	MIC [4] [µg/mL]	MIC [5] [µg/mL]	MIC (Escherichia coli 25922) [µg/mL]	MIC [6] [µg/mL]	melting point [°C]	IC50 MDA-MB-231 (MDA-MB-231 cells; 72 h exposure)	IC50 MCF-7 (MCF-7 cells; 72 h exposure)	MIC S.a. 25923 ([1]; 24 h) [µg/mL]
Cc1ccc2nc(N3C(=O)c4ccccc4C3=O)sc2c1 [3d, 2-[6-Methyl-1,3-benzothiazol-2-yl]-1H-isoindole-1,3(2H)-dione]	202.6 ± 0.6	66 ± 1.2	> 512	> 512	> 512	> 512	> 512	> 512	> 512	> 250			
COc1cc2nc(N3C(=O)c4ccccc4C3=O)sc2cc1OC [3f, 2-[5,6-Dimethoxy-1,3-benzothiazol-2-yl]-1H-isoindole-1,3(2H)-dione]	49.6 ± 1	93 ± 1.4	32 (≈ 94 µM)	64 (≈ 188 µM)	32 (≈ 94 µM)	32 (≈ 94 µM)	64 (≈ 188 µM)	32 (≈ 94 µM)	64 (≈ 188 µM)	> 250			
O=C1c2ccccc2C(=O)N1c1nc2ccc(C(F)(F)F)cc2s1 [3c, 2-[6-Trifluoromethyl-1,3-benzothiazol-2-yl]-1H-isoindole-1,3(2H)-dione]	> 500	> 500	128 (≈ 367 µM)	128 (≈ 367 µM)	64 (≈ 184 µM)	64 (≈ 184 µM)	128 (≈ 367 µM)	128 (≈ 367 µM)	128 (≈ 367 µM)		did not possess any activity	did not possess any activity	
O=C1c2ccccc2C(=O)N1c1nc2ccccc2s1 [3a, 2-(1,3-benzothiazol-2-yl)-1H-isoindole-1,3(2H)-dione]	81.8 ± 0.8	165.5 ± 1.1	64 (≈ 228 µM)	64 (≈ 228 µM)	64 (≈ 228 µM)	64 (≈ 228 µM)	64 (≈ 228 µM)	64 (≈ 228 µM)	64 (≈ 228 µM)	249 to 250			
O=C1c2ccccc2C(=O)N1c1nc2ccc(Oc3ccccc3)cc2s1 [3h, 2-[6-Phenoxy-1,3-benzothiazol-2-yl]-1H-isoindole-1,3(2H)-dione]	14 ± 0.5	26.2 ± 0.9	16 (≈ 43 µM)	32 (≈ 85.9 µM)	32 (≈ 85.9 µM)	32 (≈ 85.9 µM)	32 (≈ 85.9 µM)	32 (≈ 85.9 µM)	32 (≈ 85.9 µM)				16 (≈ 43 µM)
O=C1c2ccccc2C(=O)N1c1nc2ccc(F)cc2s1 [3b, 2-(6-Fluoro-1,3-benzothiazol-2-yl)-1H-isoindole-1,3(2H)-dione]	71.2 ± 1	91.5 ± 0.6	64 (≈ 215 µM)	64 (≈ 215 µM)	64 (≈ 215 µM)	64 (≈ 215 µM)	128 (≈ 429 µM)	64 (≈ 215 µM)	64 (≈ 215 µM)	234 to 235			
O=C1c2ccccc2C(=O)N1c1nc2ccc(O)cc2s1 [3g, 2-[6-Hydroxy-1,3-benzothiazol-2-yl]-1H-isoindole-1,3(2H)-dione]	63.3 ± 0.7	71.2 ± 0.7	32 (≈ 108 µM)	64 (≈ 216 µM)	32 (≈ 108 µM)	32 (≈ 108 µM)	64 (≈ 216 µM)	64 (≈ 216 µM)	64 (≈ 216 µM)	> 250			
COc1ccc2nc(N3C(=O)c4ccccc4C3=O)sc2c1 [3e, 2-[6-Methoxy-1,3-benzothiazol-2-yl]-1H-isoindole-1,3(2H)-dione]	102.8 ± 0.9	223.1 ± 0.9	32 (≈ 103 µM)	64 (≈ 206 µM)	32 (≈ 103 µM)	64 (≈ 206 µM)	64 (≈ 206 µM)	64 (≈ 206 µM)	64 (≈ 206 µM)	227 to 229			
